{"source": "patent US6380209B1", "about": "(dated 2002)", "note": "Counter-ions that a name gives are not always drawn.", "data": [{"smiles": "Fc1ccc(-c2cc(NCC3CCNCC3)c3sccc3n2)cc1", "note": "(as salt: hydrochloride)", "values": [{"measurement": "melting point", "value": "> 260 °C (dec.)"}]}]}
